Measurements reported in patent publication EP4644383A1 (Jiangsu Yahong Meditech Co., Ltd., priority 2022, dated 2024).
Like-named read-outs stand apart in the source and are kept apart here.

Experiments:
Format in all cases: biochemical
FGFR1 = target: T1, FGFR1 (Homo sapiens, UniProt P11362); assay: FGFR1 kinase activity inhibition assay (LanthaScreen TR-FRET)
T1 construct: cytoplasmic domain [398-822 (terminal) amino acids]; purchased Carna 08-133
Method in brief: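 Emission ratio 520 nm/495 nm by TR-FRET after stopping reaction with 10 mM EDTA and 60 min incubation at 22°C. Inhibition normalized between no-enzyme (min) and DMSO (max) controls, then fitted to a four-parameter curve (Top, Bottom, HillSlope).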

FGFR3 = target: T2, FGFR3 (Homo sapiens, UniProt P22607); assay: FGFR3 kinase activity inhibition assay (LanthaScreen TR-FRET); conditions: for Selectivity (X) FGFR1/FGFR3: ratio of IC50 FGFR1/FGFR3, selectivity towards FGFR3; for Selectivity (X) FGFR2/FGFR3: ratio of IC50 FGFR2/FGFR3, selectivity towards FGFR3; for Selectivity (X) FGFR4/FGFR3: ratio of IC50 FGFR4/FGFR3, selectivity towards FGFR3
T2 construct: FGFR3's cytoplasmic domain [436-806 (terminal) amino acids]; purchased Carna 08-135
Method in brief: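 Read-out is TR-FRET, with the 520 nm/495 nm emission ratio normalised to DMSO (max) and enzyme-free (min) controls. Enzyme was the FGFR3 cytoplasmic domain, residues 436-806. EDTA (10 mM) stopped the reaction, followed by 60 min at 22 °C before reading.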

FGFR4 = target: T3, FGFR4 (Homo sapiens, UniProt P22455); assay: FGFR4 kinase activity inhibition assay (LanthaScreen TR-FRET)
T3 construct: FGFR4's cytoplasmic domain [460-802 (terminal) amino acids]; purchased Carna 08-136
Experimental: (§1) FGFR1 kinase activity was measured using Invitrogen LanthaScreen™ assay technology, which utilized fluorescently-labeled peptides and terbium-labeled antibodies to directly measure an amount of the phosphorylated substrate through time-resolved fluorescence energy transfer (TR-FRET). • ① The test compounds were diluted: starting from a concentration of 1 µM, with a buffer solution in a three-fold serial dilution, the buffer solution being composed of 50 mM HEPES, 10 mM MgCl2, 0.01% TritonX-100, 0.01% BSA, 4 mM DTT (pH 7.5), and 1% DMSO; • ② 0.01 nM recombinant human GST fusion protein FGFR1's cytoplasmic domain [398-822 (terminal) amino acids] (Carna: 08-133) was formulated into a 2 × solution, mixed well with the test compounds, and incubated at 23°C for 10 minutes; • ③ 28 nM Fluorescein-Poly GT peptide substrate (Life Technologies: PV3611) and 28 µM ATP were formulated into a 2 × solution, mixed well with the test compounds and enzyme in ②, and incubated at 23°C for 30 minutes; • ④ 10 µL of 2nM Tb-PY20 antibody (Life Technologies: PV3552) and 10 mM EDTA were added to quench the kinase reaction, and incubated at 22°C for 60 minutes. • ⑤ The reaction was measured using a PerkinElmer EnVision multimode plate reader through TR-FRET dual wavelength detection. • 1. The RFU values were copied from the Envision program. • 2. The ratio of RFU 520nm/RFU 495nm was calculated. • 3. The value of the ratio was converted to a percentage inhibition value. % Inhibition = (max-data)/(max-min) × 100 [formula]
(§2) "Min" represents the ratio of the control without enzyme, "max" represents the ratio of the DMSO control, and "data" represents the ratio of the compounds in wells with different concentrations.
(§3) "Top" refers to the maximum response, "Bottom" refers to the minimum response, and "HillSlope" refers to the slope of the curve.
According to the same method as that in the FGFR1 kinase activity inhibition assay, the inhibitory activities against FGFR2, FGFR3 and FGFR4 were tested using FGFR2's cytoplasmic domain [399-821 (terminal) amino acids] (Carna: 08-134), FGFR3's cytoplasmic domain [436-806 (terminal) amino acids] (Carna: 08-135) and FGFR4's cytoplasmic domain [460-802 (terminal) amino acids] (Carna: 08-136), respectively. Table 1 reports the kinase activity inhibition results and selectivity towards FGFR3 of each compound.

FGFR2 = target: T4, FGFR2 (Homo sapiens, UniProt P21802); assay: FGFR2 kinase activity inhibition assay (LanthaScreen TR-FRET)
T4 construct: FGFR2's cytoplasmic domain [399-821 (terminal) amino acids]; purchased Carna 08-134
Experimental: as §1, §2, §3
According to the same method as that in the FGFR1 kinase activity inhibition assay, the inhibitory activities against FGFR2, FGFR3 and FGFR4 were tested using FGFR2's cytoplasmic domain [399-821 (terminal) amino acids] (Carna: 08-134), FGFR3's cytoplasmic domain [436-806 (terminal) amino acids] (Carna: 08-135) and FGFR4's cytoplasmic domain [460-802 (terminal) amino acids] (Carna: 08-136), respectively. […]

[1] = FGFR1 kinase, TR-FRET, read-out: IC50 (nM) FGFR1
[2] = FGFR3 kinase, TR-FRET, read-out: IC50 (nM) FGFR3
[3] = FGFR4 kinase, TR-FRET, read-out: IC50 (nM) FGFR4
[4] = FGFR2 kinase, TR-FRET, read-out: IC50 (nM) FGFR2

T4 sequence (P21802 399-821): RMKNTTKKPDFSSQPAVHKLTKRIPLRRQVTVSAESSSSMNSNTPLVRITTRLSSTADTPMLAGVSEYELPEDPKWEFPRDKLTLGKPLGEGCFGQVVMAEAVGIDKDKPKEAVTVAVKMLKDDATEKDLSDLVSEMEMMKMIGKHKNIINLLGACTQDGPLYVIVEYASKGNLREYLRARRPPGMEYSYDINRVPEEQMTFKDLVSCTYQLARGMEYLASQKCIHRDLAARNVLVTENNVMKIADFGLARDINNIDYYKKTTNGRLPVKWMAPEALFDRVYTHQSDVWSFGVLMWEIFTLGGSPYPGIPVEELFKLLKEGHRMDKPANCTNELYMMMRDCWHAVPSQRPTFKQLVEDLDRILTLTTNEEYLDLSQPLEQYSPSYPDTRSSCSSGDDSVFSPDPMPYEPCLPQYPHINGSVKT
T2 sequence (P22607 436-806): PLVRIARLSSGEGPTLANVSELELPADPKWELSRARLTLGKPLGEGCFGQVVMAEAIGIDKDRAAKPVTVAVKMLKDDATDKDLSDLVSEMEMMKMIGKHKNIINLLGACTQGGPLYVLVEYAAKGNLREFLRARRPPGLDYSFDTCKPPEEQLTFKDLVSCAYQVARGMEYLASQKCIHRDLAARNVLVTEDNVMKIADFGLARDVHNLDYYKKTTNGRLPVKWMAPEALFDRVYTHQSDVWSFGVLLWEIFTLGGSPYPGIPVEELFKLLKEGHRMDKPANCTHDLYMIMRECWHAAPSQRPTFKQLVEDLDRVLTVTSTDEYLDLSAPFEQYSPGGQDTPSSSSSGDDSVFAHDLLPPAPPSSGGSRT
T1 sequence (P11362 398-822): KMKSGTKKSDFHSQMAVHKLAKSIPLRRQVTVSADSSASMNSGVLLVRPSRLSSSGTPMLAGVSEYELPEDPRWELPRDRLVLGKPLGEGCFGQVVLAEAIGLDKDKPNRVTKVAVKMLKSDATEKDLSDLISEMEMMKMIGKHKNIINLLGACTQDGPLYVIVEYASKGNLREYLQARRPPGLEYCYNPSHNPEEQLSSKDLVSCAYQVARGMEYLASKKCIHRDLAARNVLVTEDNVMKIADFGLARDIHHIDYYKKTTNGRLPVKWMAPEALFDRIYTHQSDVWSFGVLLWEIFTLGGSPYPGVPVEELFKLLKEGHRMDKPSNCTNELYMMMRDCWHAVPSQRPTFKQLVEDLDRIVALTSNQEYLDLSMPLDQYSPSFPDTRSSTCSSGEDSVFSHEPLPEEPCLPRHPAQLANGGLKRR
T3 sequence (P22455 460-802): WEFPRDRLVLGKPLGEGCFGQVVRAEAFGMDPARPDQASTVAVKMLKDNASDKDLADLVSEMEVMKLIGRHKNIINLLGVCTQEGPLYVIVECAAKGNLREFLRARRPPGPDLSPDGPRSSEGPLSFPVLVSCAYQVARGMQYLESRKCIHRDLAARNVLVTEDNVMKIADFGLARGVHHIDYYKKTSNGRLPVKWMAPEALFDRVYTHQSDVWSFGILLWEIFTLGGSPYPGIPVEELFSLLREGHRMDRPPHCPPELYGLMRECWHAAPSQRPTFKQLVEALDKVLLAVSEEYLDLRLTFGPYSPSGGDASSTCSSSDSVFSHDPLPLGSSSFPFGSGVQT

SMILES | IC50 (FGFR1) | IC50 (FGFR3) | Selectivity (X) FGFR1/FGFR3 (FGFR3) | Selectivity (X) FGFR2/FGFR3 (FGFR3) | Selectivity (X) FGFR4/FGFR3 (FGFR3) | IC50 (FGFR4) | IC50 (FGFR2) | IC50 (FGFR1; [1]) | IC50 (FGFR3; [2]) | IC50 (FGFR4; [3]) | IC50 (FGFR2; [4])
C[C@@H](Oc1ccc2[nH]nc(-c3cnn(Cc4cccnc4)c3)c2n1)c1c(Cl)cncc1Cl [Example 28, (R)-5-(1-(3,5-dichloropyridin-4-yl)ethoxy)-3-(1-(pyridin-3-ylmethyl)-1H-pyrazol-4-yl)-1H-pyrazolo[4,3-b]pyridine] | 1 to 10 nM | < 1 nM | A (A represents 1 ≤ multiple X<20) | A (A represents 1 ≤ multiple X<20) | A (A represents 1 ≤ multiple X<20) | 1 to 10 nM | < 1 nM |  |  |  | 
C[C@@H](Oc1ccc2[nH]nc(-c3cnn(CCN4CCOCC4)c3)c2n1)c1c(Cl)cncc1Cl [Example 31, (R)-4-(2-(4-(5-(1-(3,5-dichloropyridin-4-yl)ethoxy)-1H-pyrazolo[4,3-b]pyridin-3-yl)-1H-pyrazol-1-yl)ethyl)morpholine] | 1 to 10 nM | < 1 nM | B (B represents 20 ≤ multiple X<50) | A (A represents 1 ≤ multiple X<20) | B (B represents 20 ≤ multiple X<50) | 10 to 100 nM | < 1 nM |  |  |  | 
C[C@@H](Oc1ccc2[nH]nc(-c3cnn(C4CCN(C(=O)CO)C4)c3)c2n1)c1c(Cl)cncc1Cl (stereo partly drawn) [Example 59, 1-(3-(4-(5-((R)-1-(3,5-dichloropyridin-4-yl)ethoxy)-1H-pyrazolo[4,3-b]pyridin-3-yl)-1H-pyrazol-1-yl)pyrrolidin-1-yl)-2-hydroxyethan-1-one] |  |  | A (A represents 1 ≤ multiple X<20) | A (A represents 1 ≤ multiple X<20) | B (B represents 20 ≤ multiple X<50) |  |  | 1 to 10 nM | < 1 nM | 10 to 100 nM | < 1 nM
C[C@@H](Oc1ccc2[nH]nc(-c3cnn(CCn4ccnc4)c3)c2n1)c1c(Cl)cncc1Cl [Example 60, (R)-3-(1-(2-(1H-imidazol-1-yl)ethyl)-1H-pyrazol-4-yl)-5-(1-(3,5-dichloropyridin-4-yl)ethoxy)-1H-pyrazolo[4,3-b]pyridine] |  |  | A (A represents 1 ≤ multiple X<20) | A (A represents 1 ≤ multiple X<20) | B (B represents 20 ≤ multiple X<50) |  |  | 10 to 100 nM | 1 to 10 nM | 10 to 100 nM | 1 to 10 nM
C[C@@H](Oc1ccc2[nH]nc(-c3cnn(CCc4cccnc4)c3)c2n1)c1c(Cl)cncc1Cl [Example 61, (R)-5-(1-(3,5-dichloropyridin-4-yl)ethoxy)-3-(1-(2-(pyridin-3-yl)ethyl)-1H-pyrazol-4-yl)-1H-pyrazolo[4,3-b]pyridine] |  |  | A (A represents 1 ≤ multiple X<20) | A (A represents 1 ≤ multiple X<20) | B (B represents 20 ≤ multiple X<50) |  |  | 10 to 100 nM | 1 to 10 nM | 10 to 100 nM | 1 to 10 nM
C[C@@H](Oc1ccc2[nH]nc(-c3cnn(CCN4CCC5(CCNC5=O)CC4)c3)c2n1)c1c(Cl)cncc1Cl [Example 62, (R)-8-(2-(4-(5-(1-(3,5-dichloropyridin-4-yl)ethoxy)-1H-pyrazolo[4,3-b]pyridin-3-yl)-1H-pyrazol-1-yl)ethyl)-2,8-diazaspiro[4.5]dec an-1-one] |  |  | A (A represents 1 ≤ multiple X<20) | A (A represents 1 ≤ multiple X<20) | D (D represents 100 ≤ multiple X) |  |  | 1 to 10 nM | < 1 nM | 10 to 100 nM | 1 to 10 nM
CNCCNC(=O)c1ccc2[nH]nc(-c3cn(C)nn3)c2c1 [Example 74, 3-(1-methyl-1H-1,2,3-triazol-4-yl)-N-(2-(methylamino)ethyl)-1H-indazole-5-carboxamide] |  |  | C (C represents 50 ≤ multiple X<100) | B (B represents 20 ≤ multiple X<50) | D (D represents 100 ≤ multiple X) |  |  | > 100 nM | 10 to 100 nM | > 100 nM | > 100 nM
Cc1c[nH]c(-c2n[nH]c3ccc(C(=O)NCCN(C)C)cc23)n1 [Example 80, N-(2-(dimethylamino)ethyl)-3-(4-methyl-1H-imidazol-2-yl)-1H-indazole-5-carboxamide] |  |  | D (D represents 100 ≤ multiple X) | D (D represents 100 ≤ multiple X) | D (D represents 100 ≤ multiple X) |  |  | > 100 nM | 10 to 100 nM | > 100 nM | > 100 nM
CC(Oc1ccc2[nH]nc(-c3cnn(C)c3)c2c1)c1cccc2ncc(Cl)cc12 (centres unmarked) [Example 94, 3-chloro-5-(1-((3-(1-methyl-1H-pyrazol-4-yl)-1H-indazol-5-yl)oxy)ethyl)quin oline] | > 100 nM | 10 to 100 nM | C (C represents 50 ≤ multiple X<100) | A (A represents 1 ≤ multiple X<20) | B (B represents 20 ≤ multiple X<50) | > 100 nM | 10 to 100 nM |  |  |  | 
CC(C)c1ccc2ncccc2c1C(C)Oc1ccc2[nH]nc(-c3cnn(C)c3)c2c1 (centres unmarked) [Example 107, 6-isopropyl-5-(1-((3-(1-methyl-1H-pyrazol-4-yl)-1H-indazol-5-yl)oxy)ethyl)qu inoline] |  |  | B (B represents 20 ≤ multiple X<50) | A (A represents 1 ≤ multiple X<20) | B (B represents 20 ≤ multiple X<50) |  |  | > 100 nM | 1 to 10 nM | > 100 nM | 10 to 100 nM
CC(Oc1ccc2[nH]nc(-c3cnn(C)c3)c2c1)c1c(C2CC2)ccc2ncccc12 (centres unmarked) [Example 116, 6-cyclopropyl-5-(1-((3-(1-methyl-1H-pyrazol-4-yl)-1H-indazol-5-yl)oxy)ethyl)qui noline] |  |  | B (B represents 20 ≤ multiple X<50) | A (A represents 1 ≤ multiple X<20) | B (B represents 20 ≤ multiple X<50) |  |  | 10 to 100 nM | 1 to 10 nM | > 100 nM | 10 to 100 nM
